Data published in ChEMBL document CHEMBL1800040, “Quantitative structure-activity relationship study of phloroglucinol-terpene adducts as anti-leishmanial agents” (Bioorg Med Chem Lett, 2011).

Tested on: Leishmania donovani
Test: Antileishmanial activity against Leishmania donovani promastigotes
Format: functional, organism-based

CC(C)CC(=O)c1c(O)c(C=O)c(O)c2c1O[C@@]1(C)[C@H](CC[C@H]3[C@@H]1C3(C)C)C2
IC50 (read-out: IC50): 1.42 µM | IC50 (read-out: pIC50 (converted)): 1.42 µM

CC(C)CC(=O)c1c(O)c(C=O)c(O)c2c1O[C@]1(CC2)[C@@H]2CC[C@@H](C2)C1(C)C
IC50 (read-out: IC50): 4.07 µM | IC50 (read-out: pIC50 (converted)): 3.62 µM

CC(C)CC(=O)c1c(O)c2c(c(C(=O)CC(C)C)c1O)O[C@]1(CC2)[C@@H]2CC[C@@H](C2)C1(C)C
IC50 (read-out: IC50): > 40 µg/mL

CC(C)CC(=O)c1c(O)c2c(c(C(=O)CC(C)C)c1O)O[C@@]1(C)[C@@H](C2)C[C@H]2C[C@@H]1C2(C)C
IC50 (read-out: IC50): > 40 µg/mL

CC1(C)[C@H]2C[C@@H]3Cc4c(O)c(C=O)c(O)c(C=O)c4O[C@]3(C)[C@@H]1C2
IC50 (read-out: IC50): 7.26 µM | IC50 (read-out: pIC50 (converted)): 7.26 µM

CC1(C)[C@@H]2C[C@@]3(C)Oc4c(C=O)c(O)c(C=O)c(O)c4C[C@H]3C[C@@H]21
IC50 (read-out: IC50): 5.75 µM | IC50 (read-out: pIC50 (converted)): 5.75 µM

CC(C)CC(=O)c1c(O)c2c(c(C(=O)CC(C)C)c1O)O[C@]1(C)C[C@@H]3[C@H](C[C@@H]1C2)C3(C)C
IC50 (read-out: IC50): > 40 µg/mL

CC(C)CC(=O)c1c(O)c(C=O)c2c(c1O)C[C@H]1C[C@H]3C[C@H](C3(C)C)[C@@]1(CO)O2
IC50 (read-out: IC50): 4.47 µM | IC50 (read-out: pIC50 (converted)): 4.48 µM

CC(C)CC(=O)c1c(O)c(C=O)c2c(c1O)CC[C@@]1(CC[C@H]3C[C@@H]1C3(C)C)O2 [EUGLOBAL G3]
IC50 (read-out: IC50): 1 µM | IC50 (read-out: pIC50 (converted)): 1.01 µM

CC(C)CC(=O)c1c(O)c(C=O)c(O)c2c1O[C@@]1(C)[C@@H](C2)C[C@H]2C[C@@H]1C2(C)C [EUGLOBAL G1]
IC50 (read-out: IC50): 1.84 µM | IC50 (read-out: pIC50 (converted)): 1.84 µM

CC(C)C[C@H]1C[C@@]2(CC[C@H]3C[C@@H]2C3(C)C)Oc2c(C=O)c(O)c(C=O)c(O)c21
IC50 (read-out: IC50): 5.17 µM | IC50 (read-out: pIC50 (converted)): 5.18 µM

CC(C)CC(=O)c1c(O)c(C=O)c2c(c1O)CC[C@@]1(O2)[C@@H]2CC[C@@H](C2)C1(C)C
IC50 (read-out: IC50): 0.93 µM | IC50 (read-out: pIC50 (converted)): 0.931 µM

CC(=O)c1c(O)c(C=O)c(O)c2c1O[C@]1(CC2)[C@@H]2CC[C@@H](C2)C1(C)C
IC50 (read-out: IC50): 4.47 µM | IC50 (read-out: pIC50 (converted)): 5.22 µM

CC(C)CC(=O)c1c(O)c(C=O)c(O)c2c1O[C@]1(C)C[C@@H]3[C@H](C[C@@H]1C2)C3(C)C
IC50 (read-out: IC50): 1.6 µM | IC50 (read-out: pIC50 (converted)): 1.6 µM

CC(C)CC(=O)c1c(O)c(C=O)c(O)c2c1O[C@@]1(CCO)[C@@H](C2)C[C@H]2C[C@@H]1C2(C)C
IC50 (read-out: IC50): 7.68 µM | IC50 (read-out: pIC50 (converted)): 7.69 µM

CC1(C)[C@H]2CC[C@@]3(CCc4c(O)c(C=O)c(O)c(C=O)c4O3)[C@@H]1C2
IC50 (read-out: IC50): 6.36 µM | IC50 (read-out: pIC50 (converted)): 6.35 µM

CC(=O)c1c(O)c(C=O)c2c(c1O)CC[C@@]1(O2)[C@@H]2CC[C@@H](C2)C1(C)C
IC50 (read-out: IC50): 1.25 µM | IC50 (read-out: pIC50 (converted)): 1.25 µM

CC(C)CC(=O)c1c(O)c(C=O)c2c(c1O)C[C@H]1C[C@H]3C[C@H](C3(C)C)[C@@]1(CCO)O2
IC50 (read-out: IC50): 2.28 µM | IC50 (read-out: pIC50 (converted)): 2.28 µM

CC(C)CC(=O)c1c(O)c(C=O)c(O)c2c1O[C@@]1(CC2)CC[C@H]2C[C@@H]1C2(C)C [EUGLOBAL G4]
IC50 (read-out: IC50): 3.1 µM | IC50 (read-out: pIC50 (converted)): 3.1 µM

CC(C)CC(=O)c1c(O)c(C=O)c2c(c1O)C[C@H]1C[C@H]3C[C@H](C3(C)C)[C@@]1(C)O2 [EUGLOBAL G2]
IC50 (read-out: IC50): 0.93 µM | IC50 (read-out: pIC50 (converted)): 0.931 µM

CC(C)CC(=O)c1c(O)c(C=O)c2c(c1O)C[C@H]1CC[C@H]3[C@H](C3(C)C)[C@@]1(C)O2
IC50 (read-out: IC50): 0.62 µM | IC50 (read-out: pIC50 (converted)): 0.621 µM

CC(C)CC(=O)c1c(O)c(C=O)c(O)c2c1O[C@@]1(CO)[C@@H](C2)C[C@H]2C[C@@H]1C2(C)C
IC50 (read-out: IC50): 7.45 µM | IC50 (read-out: pIC50 (converted)): 7.45 µM

CC(C)CC(=O)c1c(O)c2c(c(C(=O)CC(C)C)c1O)O[C@@]1(C)[C@H](CC[C@H]3[C@@H]1C3(C)C)C2
IC50 (read-out: IC50): > 40 µg/mL

CC(C)CC(=O)c1c(O)c2c(c(C(=O)CC(C)C)c1O)O[C@@]1(CCO)[C@@H](C2)C[C@H]2C[C@@H]1C2(C)C
IC50 (read-out: IC50): > 40 µg/mL

CC(C)C[C@@H]1C[C@@]2(CC[C@H]3C[C@@H]2C3(C)C)Oc2c(C=O)c(O)c(C=O)c(O)c21
IC50 (read-out: IC50): 4.14 µM | IC50 (read-out: pIC50 (converted)): 4.14 µM

CC(=O)c1c(O)c(C=O)c2c(c1O)C[C@H]1C[C@H]3[C@@H](C[C@@]1(C)O2)C3(C)C
IC50 (read-out: IC50): 2.76 µM | IC50 (read-out: pIC50 (converted)): 2.76 µM

CC1(C)[C@H]2C[C@@H]3Cc4c(O)c(C=O)c(O)c(C=O)c4O[C@]3(CCO)[C@@H]1C2
IC50 (read-out: IC50): 6.1 µM | IC50 (read-out: pIC50 (converted)): 6.11 µM

CC(C)CC(=O)c1c(O)c2c(c(C(=O)CC(C)C)c1O)O[C@@]1(CO)[C@@H](C2)C[C@H]2C[C@@H]1C2(C)C
IC50 (read-out: IC50): 6.93 µM | IC50 (read-out: pIC50 (converted)): 6.93 µM

CC(=O)c1c(O)c(C=O)c(O)c2c1O[C@@]1(C)[C@@H](C2)C[C@H]2C[C@@H]1C2(C)C
IC50 (read-out: IC50): 4.94 µM | IC50 (read-out: pIC50 (converted)): 4.93 µM

CC(=O)c1c(O)c(C=O)c2c(c1O)CC[C@@]1(CC[C@H]3C[C@@H]1C3(C)C)O2
IC50 (read-out: IC50): 4.65 µM | IC50 (read-out: pIC50 (converted)): 4.65 µM

CC1(C)[C@H]2CC[C@H](C2)[C@]12CCc1c(O)c(C=O)c(O)c(C=O)c1O2
IC50 (read-out: IC50): 4.07 µM | IC50 (read-out: pIC50 (converted)): 4.24 µM

CC1(C)[C@H]2C[C@@H]3Cc4c(O)c(C=O)c(O)c(C=O)c4O[C@]3(CO)[C@@H]1C2
IC50 (read-out: IC50): > 40 µg/mL

CC(=O)c1c(O)c(C=O)c(O)c2c1O[C@]1(C)C[C@@H]3[C@H](C[C@@H]1C2)C3(C)C
IC50 (read-out: IC50): 4.07 µM | IC50 (read-out: pIC50 (converted)): 4.06 µM

CC(C)CC(=O)c1c(O)c2c(c(C(=O)CC(C)C)c1O)O[C@@]1(CC2)CC[C@H]2C[C@@H]1C2(C)C
IC50 (read-out: IC50): > 40 µg/mL

CC(=O)c1c(O)c(C=O)c2c(c1O)C[C@H]1C[C@H]3C[C@H](C3(C)C)[C@@]1(C)O2
IC50 (read-out: IC50): 2.73 µM | IC50 (read-out: pIC50 (converted)): 2.73 µM

CC(C)CC(=O)c1c(O)c(C=O)c2c(c1O)C[C@H]1C[C@H]3[C@@H](C[C@@]1(C)O2)C3(C)C
IC50 (read-out: IC50): 0.73 µM | IC50 (read-out: pIC50 (converted)): 0.724 µM

CC(=O)c1c(O)c(C=O)c(O)c2c1O[C@@]1(CC2)CC[C@H]2C[C@@H]1C2(C)C
IC50 (read-out: IC50): 4.65 µM | IC50 (read-out: pIC50 (converted)): 4.65 µM

CC1(C)[C@H]2[C@@H]1CC[C@@H]1Cc3c(O)c(C=O)c(O)c(C=O)c3O[C@@]12C
IC50 (read-out: IC50): 5.17 µM | IC50 (read-out: pIC50 (converted)): 6.05 µM
